Reference: patent US20230219906A1, “MACROCYCLIC-2-AMINO-3-FLUORO-BUT-3-ENAMIDES AS INHIBITORS OF MCL-1” (Janssen Pharmaceutica NV, priority 2020, published 2023)
Like-named read-outs stand apart in the source and are kept apart here.

Columns and labels:
[1] = target: Myeloid Cell Leukemia 1(Mcl-1) (Homo sapiens, UniProt Q07820); assay: Terbium labeled Mcl-1 HTRF binding assay with Cy5-labeled BIM BH3 peptide; settings: displacement of Cy5 Bim BH3 peptide; Ki=IC50/(1+[L]/Kd), [L]=8 nM, Kd=10 nM; 60 minutes at room temperature; read-out: Tb-MCL1 Ki
Procedure: Terbium labeled Myeloid Cell Leukemia 1(Mcl-1) homogeneous time-resolved fluorescence (HTRF) binding assay utilizing the BIM BH3 peptide (H2N—(C/Cy5Mal) WIAQELRRIGDEFN-OH) as the binding partner for Mcl-1.
This assay evaluated inhibition of the BH3 domain: Mcl-1 interaction by measuring the displacement of Cy5-labeled BIM BH3 peptide (H2N—(C/Cy5Mal) WIAQELRRIGDEFN-OH) in the HTRF assay format.
The following assay and stock buffers were prepared for use in the assay: (a) Stock buffer: 10 mM Tris-HCl, pH=7.5+150 mM NaCl, filtered, sterilized, and stored at 4° C.; and (b) 1X assay buffer, where the following ingredients were added fresh to stock buffer: 2 mM dithiothreitol (DTT), 0.0025% Tween-20, 0.1 mg/mL bovine serum albumin (BSA). The 1X Tb-Mcl-1+Cy5 Bim peptide solution was prepared by diluting the protein stock solution using the 1X assay buffer (b) to 25 pM Tb-Mcl-1 and 8 nM Cy5 Bim peptide.
Using the Acoustic ECHO, 100 nL of 100x test compound(s) were dispensed into individual wells of a white 384-well Perkin Elmer Proxiplate, for a final compound concentration of 1× and final DMSO concentration of 1%. Inhibitor control and neutral control (NC, 100 nL of 100% DMSO) were stamped into columns 23 and 24 of assay plate, respectively. Into each well of the plate was then dispensed 10 μL of the 1X Tb-Mcl-1+Cy5 Bim peptide solution. The plate was centrifuged with a cover plate at 1000 rpm for 1 minute, then incubated for 60 minutes at room temperature with plates covered.
The TR-FRET signal was read on an BMG PHERAStar FSX MicroPlate Reader at room temperature using the HTRF optic module (HTRF: excitation: 337 nm, light source: laser, emission A: 665 nm, emission B: 620 nm, integration start: 60 μs, integration time: […]).
The BMG PHERAStar FSX MicroPlate Reader was used to measure fluorescence intensity at two emission wavelengths—665 nm and 620 nm—and report relative fluorescence units (RFU) for both emissions, as well as a ratio of the emissions (665 nm/620 nm)*10,000. The RFU values were normalized to percent inhibition as follows:
% inhibition=(((NC−IC)−(compound−IC))/(NC−IC))*100
where IC (inhibitor control, low signal)= mean signal of 1X Tb-MCl-1+Cy5 Bim peptide+inhibitor control or 100% inhibition of Mcl-1; NC (neutral control, high signal)= mean signal 1X Tb-MCl-1+Cy5 Bim peptide with DMSO only or 0% inhibition An 11-point dose response curve was generated to determine IC50 values (using GenData) based on the following equation:
Y=Bottom+(Top−Bottom)/(1+10∧((log IC50−X)*HillSlope))
where Y=% inhibition in the presence of X inhibitor concentration; Top=100% inhibition derived from the IC (mean signal of Mcl-1+inhibitor control); Bottom=0% inhibition derived from the NC (mean signal of Mcl-1+DMSO); Hillslope=Hill coefficient; and IC50=concentration of compound with 50% inhibition in relation to top/neutral control (NC).
In this assay [L]=8 nM and Kd=10 nM

[2] = test system: MOLP-8 human multiple myeloma cell line; assay: Caspase-Glo 3/7 apoptosis induction assay in MOLP-8 cells; type: cell-based; settings: caspase-3/7 activity, 2 hours at 37° C., averaged over all runs on all batches, read-out: MOLP8 AC50
Text: MCL-1 is a regulator of apoptosis and is highly over-expressed in tumor cells that escape cell death. The assay evaluates the cellular potency of small-molecule compounds targeting regulators of the apoptosis pathway, primarily MCL-1, Bfl-1, Bcl-2, and other proteins of the Bcl-2 family. Protein-protein inhibitors disrupting the interaction of anti-apoptotic regulators with BH3-domain proteins initiate apoptosis.
The Caspase-Glo® 3/7 Assay is a luminescent assay that measures caspase-3 and −7 activities in purified enzyme preparations or cultures of adherent or suspension cells. The assay provides a proluminescent caspase-3/7 substrate, which contains the tetrapeptide sequence DEVD. This substrate is cleaved to release aminoluciferin, a substrate of luciferase used in the production of light. Addition of the single Caspase-Glo® 3/7 Reagent in an “add-mix-measure” format results in cell lysis, followed by caspase cleavage of the substrate and generation of a “glow-type” luminescent signal.
This assay uses the MOLP-8 human multiple myeloma cell line, which is sensitive to MCL-1 inhibition.
Cell cultures were maintained between 0.2 and 2.0×10^6 cells/mL. The cells were harvested by collection in 50 mL conical tubes. The cells were then pelleted at 500 g for 5 mins before removing supernatant and resuspension in fresh pre-warmed culture medium. The cells were counted and diluted as needed.
The assay reagent was prepared by transferring the buffer solution to the substrate vial and mixing. The solution may be stored for up to 1 week at 4° C. with negligible loss of signal.
Compounds were delivered in assay-ready plates (Proxiplate) and stored at −20° C. Assays always include 1 reference compound plate containing reference compounds. The plates were spotted with 40 nL of compounds (0.5% DMSO final in cells; serial dilution; […] highest conc. 1/3 dilution, 10 doses, duplicates). The compounds were used at room temperature and 4 μL of pre-warmed media was added to all wells except column 2 and 23. The negative control was prepared by adding 1% DMSO in media. The positive control was prepared by adding the appropriate positive control compound in final concentration of […] in media. The plate was prepared by adding 4 μL negative control to column 23, 4 μL positive control to column 2 and 4 μL cell suspension to all wells in the plate. The plate with cells was then incubated at 37° C. for 2 hours. The assay signal reagent is the Caspase-Glo solution described above, and 8 μL was added to all wells. The plates were then sealed and measured after 30 minutes.
The activity of a test compound was calculated as percent change in apoptosis induction as follows:
% Effect (AC50)=100−(sample-LC)/(HC-LC)*100
% Control=(sample/HC)*100
% Control min=(sample-LC)/(HC-LC)*100

Myeloid Cell Leukemia 1(Mcl-1), sequence (Q07820 whole entry): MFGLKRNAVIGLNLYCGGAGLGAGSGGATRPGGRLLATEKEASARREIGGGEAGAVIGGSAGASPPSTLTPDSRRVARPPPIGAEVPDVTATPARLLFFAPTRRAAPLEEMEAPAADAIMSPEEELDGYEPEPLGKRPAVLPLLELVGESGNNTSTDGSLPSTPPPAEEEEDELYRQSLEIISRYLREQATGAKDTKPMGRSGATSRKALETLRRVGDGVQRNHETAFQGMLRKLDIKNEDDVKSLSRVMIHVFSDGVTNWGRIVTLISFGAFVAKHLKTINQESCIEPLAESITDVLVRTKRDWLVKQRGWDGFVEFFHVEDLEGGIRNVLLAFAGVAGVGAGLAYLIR

C[C@@H]1[C@@H](C)C/C=C(\F)[C@H](C(=O)N2CCOC3(CCC3)C2)N2CCC[C@H]2CN2C[C@@]3(CCCc4cc(Cl)ccc43)COc3ccc(cc32)C(=O)NS1(=O)=O [Compound 26]
Ki [1]: 0.115 nM | AC50 ([2]; Homo sapiens, MOLP-8, 2 h): 153 nM

C[C@@H]1[C@@H](C)C/C=C(\F)[C@H](C(=O)N2CCOCC2)N2CCC[C@H]2CN2C[C@@]3(CCCc4cc(Cl)ccc43)COc3ccc(cc32)C(=O)NS1(=O)=O [Compound 8]
Ki [1]: 0.074 nM | AC50 ([2]; Homo sapiens, MOLP-8, 2 h): 141 nM

C[C@@H]1[C@@H](C)C/C=C(\F)[C@H](C(=O)N(C)CC2CCCOC2)N2CCC[C@H]2CN2C[C@@]3(CCCc4cc(Cl)ccc43)COc3ccc(cc32)C(=O)NS1(=O)=O (single isomer, unassigned) [Compound 64]
Ki [1]: 0.083 nM | AC50 ([2]; Homo sapiens, MOLP-8, 2 h): 74.7 nM

C[C@@H]1[C@@H](C)C/C=C(\F)[C@H](C(=O)N2CCC(F)(F)CC2)N2CCC[C@H]2CN2C[C@@]3(CCCc4cc(Cl)ccc43)COc3ccc(cc32)C(=O)NS1(=O)=O [Compound 43]
Ki [1]: 0.438 nM | AC50 ([2]; Homo sapiens, MOLP-8, 2 h): 399 nM

C[C@@H]1[C@@H](C)C/C=C(\F)[C@H](C(=O)N(C)C2CCOC2)N2CCC[C@H]2CN2C[C@@]3(CCCc4cc(Cl)ccc43)COc3ccc(cc32)C(=O)NS1(=O)=O (single isomer, unassigned) [Compound 68]
Ki [1]: 0.041 nM | AC50 ([2]; Homo sapiens, MOLP-8, 2 h): 103 nM

COCCN(CCOC)C(=O)[C@H]1/C(F)=C/C[C@H](C)[C@@H](C)S(=O)(=O)NC(=O)c2ccc3c(c2)N(C[C@@H]2CCCN21)C[C@@]1(CCCc2cc(Cl)ccc21)CO3 [Compound 39]
Ki [1]: 0.081 nM | AC50 ([2]; Homo sapiens, MOLP-8, 2 h): 19.7 nM

COCCN(CCN1CCOCC1)C(=O)[C@H]1/C(F)=C/C[C@H](C)[C@@H](C)S(=O)(=O)NC(=O)c2ccc3c(c2)N(C[C@@H]2CCCN21)C[C@@]1(CCCc2cc(Cl)ccc21)CO3 [Compound 76]
Ki [1]: 0.017 nM | AC50 ([2]; Homo sapiens, MOLP-8, 2 h): 36.7 nM

C[C@@H]1[C@@H](C)C/C=C(\F)[C@H](C(=O)N(C)CC(F)(F)F)N2CCC[C@H]2CN2C[C@@]3(CCCc4cc(Cl)ccc43)COc3ccc(cc32)C(=O)NS1(=O)=O [Compound 30]
Ki [1]: 0.379 nM | AC50 ([2]; Homo sapiens, MOLP-8, 2 h): 351 nM

CC(C)N(C)C(=O)[C@H]1/C(F)=C/C[C@H](C)[C@@H](C)S(=O)(=O)NC(=O)c2ccc3c(c2)N(C[C@@H]2CCCN21)C[C@@]1(CCCc2cc(Cl)ccc21)CO3 [Compound 31]
Ki [1]: 0.105 nM | AC50 ([2]; Homo sapiens, MOLP-8, 2 h): 238 nM

C[C@@H]1[C@@H](C)C/C=C(\F)[C@H](C(=O)N2CC[C@@H](C#N)C2)N2CCC[C@H]2CN2C[C@@]3(CCCc4cc(Cl)ccc43)COc3ccc(cc32)C(=O)NS1(=O)=O [Compound 47]
Ki [1]: 0.065 nM | AC50 ([2]; Homo sapiens, MOLP-8, 2 h): 241 nM

C[C@@H]1[C@@H](C)C/C=C(\F)[C@H](C(=O)N(C)C2CCOC2)N2CCC[C@H]2CN2C[C@@]3(CCCc4cc(Cl)ccc43)COc3ccc(cc32)C(=O)NS1(=O)=O (single isomer, unassigned) [Compound 69]
Ki [1]: 0.049 nM | AC50 ([2]; Homo sapiens, MOLP-8, 2 h): 118 nM

C[C@@H]1[C@@H](C)C/C=C(\F)[C@H](C(=O)N2CCCC3(CCOC3)C2)N2CCC[C@H]2CN2C[C@@]3(CCCc4cc(Cl)ccc43)COc3ccc(cc32)C(=O)NS1(=O)=O (single isomer, unassigned) [Compound 14]
Ki [1]: 0.126 nM | AC50 ([2]; Homo sapiens, MOLP-8, 2 h): 266 nM

C[C@@H]1CN(C(=O)[C@H]2/C(F)=C/C[C@H](C)[C@@H](C)S(=O)(=O)NC(=O)c3ccc4c(c3)N(C[C@@H]3CCCN32)C[C@@]2(CCCc3cc(Cl)ccc32)CO4)CCO1 [Compound 4]
Ki [1]: 0.084 nM | AC50 ([2]; Homo sapiens, MOLP-8, 2 h): 71.3 nM

C[C@@H]1[C@@H](C)C/C=C(\F)[C@H](C(=O)N2CCC3(CCCCC3)C2)N2CCC[C@H]2CN2C[C@@]3(CCCc4cc(Cl)ccc43)COc3ccc(cc32)C(=O)NS1(=O)=O [Compound 32]
Ki [1]: 0.603 nM | AC50 ([2]; Homo sapiens, MOLP-8, 2 h): 478 nM

C[C@@H]1[C@@H](C)C/C=C(\F)[C@H](C(=O)N(C)CC2CCCOC2)N2CCC[C@H]2CN2C[C@@]3(CCCc4cc(Cl)ccc43)COc3ccc(cc32)C(=O)NS1(=O)=O (single isomer, unassigned) [Compound 65]
Ki [1]: 0.062 nM | AC50 [2]: 56.7 nM

Cc1nc(CN(C)C(=O)[C@H]2/C(F)=C/C[C@H](C)[C@@H](C)S(=O)(=O)NC(=O)c3ccc4c(c3)N(C[C@@H]3CCCN32)C[C@@]2(CCCc3cc(Cl)ccc32)CO4)co1 [Compound 80]
Ki [1]: 0.079 nM | AC50 ([2]; Homo sapiens, MOLP-8, 2 h): 134 nM

C[C@@H]1[C@@H](C)C/C=C(\F)[C@H](C(=O)N(C)CC2CCOCC2)N2CCC[C@H]2CN2C[C@@]3(CCCc4cc(Cl)ccc43)COc3ccc(cc32)C(=O)NS1(=O)=O [Compound 22]
Ki [1]: 0.047 nM | AC50 ([2]; Homo sapiens, MOLP-8, 2 h): 56.7 nM

C[C@@H]1[C@@H](C)C/C=C(\F)[C@H](C(=O)N(C)c2ccccc2)N2CCC[C@H]2CN2C[C@@]3(CCCc4cc(Cl)ccc43)COc3ccc(cc32)C(=O)NS1(=O)=O [Compound 28]
Ki [1]: 0.465 nM | AC50 ([2]; Homo sapiens, MOLP-8, 2 h): 302 nM

COCCCN(CCCOC)C(=O)[C@H]1/C(F)=C/C[C@H](C)[C@@H](C)S(=O)(=O)NC(=O)c2ccc3c(c2)N(C[C@@H]2CCCN21)C[C@@]1(CCCc2cc(Cl)ccc21)CO3 [Compound 37]
Ki [1]: 0.061 nM | AC50 ([2]; Homo sapiens, MOLP-8, 2 h): 49.5 nM

C[C@@H]1[C@@H](C)C/C=C(\F)[C@H](C(=O)N(C)CCOC2CCOCC2)N2CCC[C@H]2CN2C[C@@]3(CCCc4cc(Cl)ccc43)COc3ccc(cc32)C(=O)NS1(=O)=O [Compound 35]
Ki [1]: 0.066 nM | AC50 ([2]; Homo sapiens, MOLP-8, 2 h): 90.1 nM

C[C@@H]1[C@@H](C)C/C=C(\F)[C@H](C(=O)N2CC3(CSC3)C2)N2CCC[C@H]2CN2C[C@@]3(CCCc4cc(Cl)ccc43)COc3ccc(cc32)C(=O)NS1(=O)=O [Compound 15]
Ki [1]: 0.162 nM | AC50 ([2]; Homo sapiens, MOLP-8, 2 h): 435 nM

C[C@@H]1[C@@H](C)C/C=C(\F)[C@H](C(=O)N2C[C@@H]3OCCO[C@@H]3C2)N2CCC[C@H]2CN2C[C@@]3(CCCc4cc(Cl)ccc43)COc3ccc(cc32)C(=O)NS1(=O)=O [Compound 53]
Ki [1]: 0.069 nM | AC50 ([2]; Homo sapiens, MOLP-8, 2 h): 169 nM
